Assay [1] relates to Botrytis cinerea. Nature of the assay: Green house: preventative fungicidal control of Botrytis cinerea on leaves of green pepper. It is filed as in vivo. The following applies: 250 ppm active substance, green pepper plants sprayed to run-off one day before inoculation; assessed visually as % diseased leaf area after 5 days at 22 to 24°C; untreated plants 90% infected. As for the experimental part:
The compound was dissolved in a mixture of acetone and/or dimethylsulfoxide and the wetting agent/emulsifier Wettol, which is based on ethoxylated alkylphenoles, in a ratio (volume) solvent-emulsifier of 99 to 1 to give a total volume of 5 ml. Subsequently, water was added to total volume of 100 ml. This stock solution was then diluted with the described solvent-emulsifier-water mixture to the final concentration given in the table below. Young seedlings of green pepper were grown in pots to the 4 to 5 leaf stage. These plants were sprayed to run-off with previously described spray solution, containing the concentration of active ingredient or mixture mentioned in the table below. The next day the plants were inoculated with an aqueous biomalt or DOB solution containing the spore suspension of Botrytis cinerea. Then the plants were immediately transferred to a humid chamber. After 5 days at 22 to 24°C and a saturated relative humidity, the extent of fungal attack on the leaves was visually assessed as % diseased leaf area.

Assay [2] concerns Botrytis cinerea. The experiment in a line: Microtest: activity against the grey mold Botrytis cinerea in the microtiterplate test. It counts as cell-based. Particulars: 31 ppm active substance; absorption at 405 nm 7 days after inoculation, 18°C; relative to active compound-free control (100%). On the procedure: The active compounds were formulated separately as a stock solution having a concentration of 10000 ppm in dimethyl sulfoxide.
The stock solutions were mixed according to the ratio, pipetted onto a micro titer plate (MTP) and diluted with water to the stated concentrations. A spore suspension of Botrci cinerea in an aqueous biomalt or yeast-bactopeptone-sodiumacetate solution was then added. The plates were placed in a water vapor-saturated chamber at a temperature of 18°C. Using an absorption photometer, the MTPs were measured at 405 nm 7 days after the inoculation.
The measured parameters were compared to the growth of the active compound-free control variant (100%) and the fungus-free blank value to determine the relative growth in % of the pathogens in the respective active compounds.

Consider `Cc1cc(C2=NC(C)(C)N(C)n3cccc32)cnc1C(F)F` [Ex-1, 4-(6-(difluoromethyl)-5-methylpyridin-3-yl)-1,2,2-trimethyl-1,2-dihydropyrrolo[2,1-f][1,2,4]triazine], for which the “growth of the pathogen” value in assay [1] is on record as “at most 7%”; in assay [2], 0%.
`Cc1cc(C2=NC(C)(C)Nn3cccc32)cnc1C(F)F` [Ex-2, 4-(6-(difluoromethyl)-5-methylpyridin-3-yl)-2,2-dimethyl-1,2-dihydropyrrolo[2,1-f][1,2,4]triazine]: the “growth of the pathogen” value in assay [2] was determined as 0%.
